Source: the NIST ThermoML archive (doi:10.1021/je020042y)
± gives the expanded uncertainty stated by the source.

Experiment: molar heat capacity at saturation pressure
Conditions: Liquid

ClCCCl [1,2-dichloroethane]
molar heat capacity (284.16 K): 128.02 ± 0.99 J/K/mol | molar heat capacity (286.66 K): 128.21 ± 0.99 J/K/mol | molar heat capacity (289.15 K): 128.39 ± 0.99 J/K/mol | molar heat capacity (291.66 K): 128.58 ± 1 J/K/mol | molar heat capacity (294.15 K): 128.75 ± 1 J/K/mol | molar heat capacity (296.65 K): 128.94 ± 1 J/K/mol | molar heat capacity (298.15 K): 129.06 ± 1 J/K/mol | molar heat capacity (299.16 K): 129.11 ± 1 J/K/mol | molar heat capacity (301.65 K): 129.39 ± 1 J/K/mol | molar heat capacity (304.16 K): 129.47 ± 1 J/K/mol | molar heat capacity (308.56 K): 129.86 ± 1 J/K/mol | molar heat capacity (309.15 K): 129.86 ± 1 J/K/mol | molar heat capacity (311.66 K): 130.16 ± 1 J/K/mol | molar heat capacity (314.15 K): 130.4 ± 1 J/K/mol | molar heat capacity (316.65 K): 130.55 ± 1 J/K/mol | molar heat capacity (319.16 K): 130.88 ± 1 J/K/mol | molar heat capacity (321.65 K): 131.09 ± 1 J/K/mol | molar heat capacity (324.16 K): 131.2 ± 1 J/K/mol | molar heat capacity (326.65 K): 131.56 ± 1 J/K/mol | molar heat capacity (329.15 K): 131.87 ± 1 J/K/mol | molar heat capacity (331.66 K): 132.06 ± 1 J/K/mol | molar heat capacity (334.15 K): 132.24 ± 1 J/K/mol | molar heat capacity (336.66 K): 132.59 ± 1 J/K/mol | molar heat capacity (339.16 K): 132.82 ± 1 J/K/mol | molar heat capacity (341.65 K): 132.96 ± 1 J/K/mol | molar heat capacity (344.16 K): 133.32 ± 1 J/K/mol | molar heat capacity (346.65 K): 133.59 ± 1 J/K/mol | molar heat capacity (349.15 K): 133.83 ± 1 J/K/mol | molar heat capacity (351.66 K): 134.22 ± 1 J/K/mol | molar heat capacity (353.14 K): 134.46 ± 1 J/K/mol

ClCCCCl [1,3-dichloropropane]
molar heat capacity (284.16 K): 154.94 ± 1.2 J/K/mol | molar heat capacity (286.66 K): 155.4 ± 1.2 J/K/mol | molar heat capacity (289.15 K): 155.76 ± 1.2 J/K/mol | molar heat capacity (291.66 K): 156.11 ± 1.2 J/K/mol | molar heat capacity (294.15 K): 156.39 ± 1.2 J/K/mol | molar heat capacity (296.65 K): 156.76 ± 1.2 J/K/mol | molar heat capacity (298.15 K): 157.03 ± 1.2 J/K/mol | molar heat capacity (299.16 K): 157.2 ± 1.2 J/K/mol | molar heat capacity (301.65 K): 157.65 ± 1.2 J/K/mol | molar heat capacity (304.16 K): 157.89 ± 1.2 J/K/mol | molar heat capacity (308.56 K): 158.63 ± 1.2 J/K/mol | molar heat capacity (309.15 K): 158.67 ± 1.2 J/K/mol | molar heat capacity (311.66 K): 159.23 ± 1.2 J/K/mol | molar heat capacity (314.15 K): 159.54 ± 1.2 J/K/mol | molar heat capacity (316.65 K): 159.89 ± 1.2 J/K/mol | molar heat capacity (319.16 K): 160.47 ± 1.2 J/K/mol | molar heat capacity (321.65 K): 160.93 ± 1.2 J/K/mol | molar heat capacity (324.16 K): 161.01 ± 1.2 J/K/mol | molar heat capacity (326.65 K): 161.59 ± 1.2 J/K/mol | molar heat capacity (329.15 K): 162.11 ± 1.3 J/K/mol | molar heat capacity (331.66 K): 162.48 ± 1.3 J/K/mol | molar heat capacity (334.15 K): 162.96 ± 1.3 J/K/mol | molar heat capacity (336.66 K): 163.33 ± 1.3 J/K/mol | molar heat capacity (339.16 K): 163.82 ± 1.3 J/K/mol | molar heat capacity (341.65 K): 164.1 ± 1.3 J/K/mol | molar heat capacity (344.16 K): 164.44 ± 1.3 J/K/mol | molar heat capacity (346.65 K): 165.1 ± 1.3 J/K/mol | molar heat capacity (349.15 K): 165.38 ± 1.3 J/K/mol | molar heat capacity (351.66 K): 165.81 ± 1.3 J/K/mol | molar heat capacity (353.14 K): 166.22 ± 1.3 J/K/mol

ClCCCCCl [1,4-dichlorobutane]
molar heat capacity (284.16 K): 181.25 ± 1.4 J/K/mol | molar heat capacity (286.66 K): 181.71 ± 1.4 J/K/mol | molar heat capacity (289.15 K): 182.15 ± 1.4 J/K/mol | molar heat capacity (291.66 K): 182.62 ± 1.4 J/K/mol | molar heat capacity (294.15 K): 182.99 ± 1.4 J/K/mol | molar heat capacity (296.65 K): 183.49 ± 1.4 J/K/mol | molar heat capacity (298.15 K): 183.76 ± 1.4 J/K/mol | molar heat capacity (299.16 K): 183.89 ± 1.4 J/K/mol | molar heat capacity (301.65 K): 184.47 ± 1.4 J/K/mol | molar heat capacity (304.16 K): 184.8 ± 1.4 J/K/mol | molar heat capacity (308.56 K): 185.71 ± 1.4 J/K/mol | molar heat capacity (309.15 K): 185.83 ± 1.4 J/K/mol | molar heat capacity (311.66 K): 186.41 ± 1.4 J/K/mol | molar heat capacity (314.15 K): 186.88 ± 1.4 J/K/mol | molar heat capacity (316.65 K): 187.38 ± 1.4 J/K/mol | molar heat capacity (319.16 K): 187.89 ± 1.5 J/K/mol | molar heat capacity (321.65 K): 188.52 ± 1.5 J/K/mol | molar heat capacity (324.16 K): 188.85 ± 1.5 J/K/mol | molar heat capacity (326.65 K): 189.48 ± 1.5 J/K/mol | molar heat capacity (329.15 K): 190.01 ± 1.5 J/K/mol | molar heat capacity (331.66 K): 190.54 ± 1.5 J/K/mol | molar heat capacity (334.15 K): 190.99 ± 1.5 J/K/mol | molar heat capacity (336.66 K): 191.48 ± 1.5 J/K/mol | molar heat capacity (339.16 K): 192 ± 1.5 J/K/mol | molar heat capacity (341.65 K): 192.36 ± 1.5 J/K/mol | molar heat capacity (344.16 K): 193.05 ± 1.5 J/K/mol | molar heat capacity (346.65 K): 193.63 ± 1.5 J/K/mol | molar heat capacity (349.15 K): 194 ± 1.5 J/K/mol | molar heat capacity (351.66 K): 194.7 ± 1.5 J/K/mol | molar heat capacity (353.14 K): 195.12 ± 1.5 J/K/mol

ClCCCCCCl [1,5-dichloropentane]
molar heat capacity (284.16 K): 209.5 ± 1.6 J/K/mol | molar heat capacity (286.66 K): 210.04 ± 1.6 J/K/mol | molar heat capacity (289.15 K): 210.65 ± 1.6 J/K/mol | molar heat capacity (291.66 K): 211.2 ± 1.6 J/K/mol | molar heat capacity (294.15 K): 211.7 ± 1.6 J/K/mol | molar heat capacity (296.65 K): 212.19 ± 1.6 J/K/mol | molar heat capacity (298.15 K): 212.63 ± 1.6 J/K/mol | molar heat capacity (299.16 K): 212.96 ± 1.6 J/K/mol | molar heat capacity (301.65 K): 213.55 ± 1.6 J/K/mol | molar heat capacity (304.16 K): 214.12 ± 1.7 J/K/mol | molar heat capacity (308.56 K): 215.36 ± 1.7 J/K/mol | molar heat capacity (309.15 K): 215.26 ± 1.7 J/K/mol | molar heat capacity (311.66 K): 215.96 ± 1.7 J/K/mol | molar heat capacity (314.15 K): 216.61 ± 1.7 J/K/mol | molar heat capacity (316.65 K): 217.17 ± 1.7 J/K/mol | molar heat capacity (319.16 K): 217.92 ± 1.7 J/K/mol | molar heat capacity (321.65 K): 218.56 ± 1.7 J/K/mol | molar heat capacity (324.16 K): 219 ± 1.7 J/K/mol | molar heat capacity (326.65 K): 219.91 ± 1.7 J/K/mol | molar heat capacity (329.15 K): 220.61 ± 1.7 J/K/mol | molar heat capacity (331.66 K): 221.16 ± 1.7 J/K/mol | molar heat capacity (334.15 K): 221.76 ± 1.7 J/K/mol | molar heat capacity (336.66 K): 222.43 ± 1.7 J/K/mol | molar heat capacity (339.16 K): 223.1 ± 1.7 J/K/mol | molar heat capacity (341.65 K): 223.58 ± 1.7 J/K/mol | molar heat capacity (344.16 K): 224.7 ± 1.7 J/K/mol | molar heat capacity (346.65 K): 225.01 ± 1.7 J/K/mol | molar heat capacity (349.15 K): 225.75 ± 1.8 J/K/mol | molar heat capacity (351.66 K): 226.41 ± 1.8 J/K/mol | molar heat capacity (353.14 K): 227.13 ± 1.8 J/K/mol

ClCCCCCCCl [1,6-dichlorohexane]
molar heat capacity (284.16 K): 236.57 ± 1.8 J/K/mol | molar heat capacity (286.66 K): 237.13 ± 1.8 J/K/mol | molar heat capacity (289.15 K): 237.89 ± 1.8 J/K/mol | molar heat capacity (291.66 K): 238.51 ± 1.9 J/K/mol | molar heat capacity (294.15 K): 239.26 ± 1.9 J/K/mol | molar heat capacity (296.65 K): 239.89 ± 1.9 J/K/mol | molar heat capacity (298.15 K): 240.39 ± 1.9 J/K/mol | molar heat capacity (299.16 K): 240.68 ± 1.9 J/K/mol | molar heat capacity (301.65 K): 241.35 ± 1.9 J/K/mol | molar heat capacity (304.16 K): 242 ± 1.9 J/K/mol | molar heat capacity (308.56 K): 243 ± 1.9 J/K/mol | molar heat capacity (309.15 K): 243.48 ± 1.9 J/K/mol | molar heat capacity (311.66 K): 244.27 ± 1.9 J/K/mol | molar heat capacity (314.15 K): 245.06 ± 1.9 J/K/mol | molar heat capacity (316.65 K): 245.79 ± 1.9 J/K/mol | molar heat capacity (319.16 K): 246.57 ± 1.9 J/K/mol | molar heat capacity (321.65 K): 247.24 ± 1.9 J/K/mol | molar heat capacity (324.16 K): 247.78 ± 1.9 J/K/mol | molar heat capacity (326.65 K): 248.95 ± 1.9 J/K/mol | molar heat capacity (329.15 K): 249.58 ± 1.9 J/K/mol | molar heat capacity (331.66 K): 250.36 ± 1.9 J/K/mol | molar heat capacity (334.15 K): 251.24 ± 1.9 J/K/mol | molar heat capacity (336.66 K): 252 ± 1.9 J/K/mol | molar heat capacity (339.16 K): 252.72 ± 2 J/K/mol | molar heat capacity (341.65 K): 253.7 ± 2 J/K/mol | molar heat capacity (344.16 K): 254.49 ± 2 J/K/mol | molar heat capacity (346.65 K): 255.12 ± 2 J/K/mol | molar heat capacity (349.15 K): 255.75 ± 2 J/K/mol | molar heat capacity (351.66 K): 257 ± 2 J/K/mol | molar heat capacity (353.14 K): 257.47 ± 2 J/K/mol

CCCCO [butan-1-ol]
molar heat capacity (303.15 K): 181.16 ± 1.4 J/K/mol | molar heat capacity (313.15 K): 188.39 ± 1.5 J/K/mol | molar heat capacity (323.15 K): 196.66 ± 1.5 J/K/mol | molar heat capacity (333.15 K): 205.33 ± 1.6 J/K/mol | molar heat capacity (343.15 K): 214.22 ± 1.7 J/K/mol

Cc1ccccc1 [toluene]
molar heat capacity (283.15 K): 152.85 ± 1.2 J/K/mol | molar heat capacity (293.15 K): 155.56 ± 1.2 J/K/mol | molar heat capacity (303.15 K): 158.38 ± 1.2 J/K/mol | molar heat capacity (313.15 K): 161.47 ± 1.2 J/K/mol | molar heat capacity (323.15 K): 164.51 ± 1.3 J/K/mol | molar heat capacity (333.15 K): 167.63 ± 1.3 J/K/mol | molar heat capacity (343.15 K): 170.85 ± 1.3 J/K/mol

O [water]
molar heat capacity (283.15 K): 75.47 ± 0.58 J/K/mol | molar heat capacity (293.15 K): 75.29 ± 0.58 J/K/mol | molar heat capacity (303.15 K): 75.29 ± 0.58 J/K/mol | molar heat capacity (313.15 K): 75.34 ± 0.58 J/K/mol | molar heat capacity (323.15 K): 75.32 ± 0.58 J/K/mol | molar heat capacity (333.15 K): 75.33 ± 0.58 J/K/mol | molar heat capacity (343.15 K): 75.38 ± 0.58 J/K/mol
